Laboratory results: patent US10302632B2, “Macromolecular conjugates for visualization and separation of proteins and cells” (USTAV ORGANICKE CHEMIE A BIOCHEMIE AV CR, V.V.I., priority 2015, dated 2019)
Like-named read-outs stand apart in the source and are kept apart here. Square brackets hold non-standard residues; d marks the D form. Peptide text beside a SMILES is read from it. Sta = CC(C)C[C@H](N)[C@@H](O)CC(=O)O; AEEA = NCCOCCOCC(=O)O

What was measured:
[1] = target: T1, recombinant extracellular GCPII (Avi-GCPII) (Homo sapiens, UniProt Q04609); assay: Inhibition of GCPII hydrolytic activity (HPLC assay); assay type: biochemical
T1 construct: using a recombinant extracellular GCPII (Avi-GCPII; prepared according to [13]); Avi-tag; made in house
T1 sequence (Q04609 44-750 limits assumed): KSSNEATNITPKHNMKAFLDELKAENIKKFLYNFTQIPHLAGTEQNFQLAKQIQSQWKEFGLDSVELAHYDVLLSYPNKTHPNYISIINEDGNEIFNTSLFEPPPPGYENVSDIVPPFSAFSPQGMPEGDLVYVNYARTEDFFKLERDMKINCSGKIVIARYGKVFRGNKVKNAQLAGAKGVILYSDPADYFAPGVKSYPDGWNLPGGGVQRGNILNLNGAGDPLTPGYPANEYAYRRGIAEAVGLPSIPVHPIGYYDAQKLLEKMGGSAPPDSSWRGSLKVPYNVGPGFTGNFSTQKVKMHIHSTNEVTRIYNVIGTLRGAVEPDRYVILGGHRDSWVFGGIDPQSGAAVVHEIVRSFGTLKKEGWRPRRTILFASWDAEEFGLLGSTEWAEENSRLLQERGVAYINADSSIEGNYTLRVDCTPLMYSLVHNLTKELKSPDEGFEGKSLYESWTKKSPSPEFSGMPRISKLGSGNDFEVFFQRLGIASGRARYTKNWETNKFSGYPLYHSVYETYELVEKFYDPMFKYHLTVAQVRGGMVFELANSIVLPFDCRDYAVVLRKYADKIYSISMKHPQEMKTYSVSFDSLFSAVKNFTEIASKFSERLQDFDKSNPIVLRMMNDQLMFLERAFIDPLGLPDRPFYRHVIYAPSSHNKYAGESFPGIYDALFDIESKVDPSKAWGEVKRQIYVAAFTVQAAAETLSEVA
Experimental: Inhibitory potency of the inhibitors and polymeric conjugates on the hydrolytic activity of GCPII were tested by HPLC (described in [12]) using a recombinant extracellular GCPII (Avi-GCPII; prepared according to [13]). 210 pg of GCPII was mixed with a solution of 25 mM Bis-Tris propane, 150 mM NaCl, pH 7.4, 0.001% monododecyl(oktaethylenglycol)ether (Affymetrix, Octaethylene glycol monododecyl ether) and inhibitor solution to a total volume of 180 μl in a 96-well plate. Ten different inhibitor concentrations covering the whole inhibition curve were used. Reactions were first incubated 5 min at 37° C., then initiated by addition of 20 μl of pteroyl-bis(L-glutamate) to a final concentration of 400 nM and incubated at 37° C. for 20 min. […] Subsequently, 100 μl of the reaction mixture was analyzed in Agilent 1200 Infinity (Agilent Technologies, Inc.) on an RP-HPLC column Waters Acquity UPLC HSS T3 1.8 μm, 2.1×100 mm (Waters). HPLC analysis was performed isocratically in 2.7% acetonitrile and 97.3% 20 mM phosphate, pH 6.0. Substrate and product absorbance was measured at 281 nm. IC50 values were obtained from GraFit v.5.0.11 (Erithacus Software Ltd.).
Assuming competitive type of inhibition and using the values of KM and kcat, the Ki values for each inhibitor were determined from the Cheng-Prusoff equation [14].

CA-IX = CA-IX (Homo sapiens, UniProt Q16790); assay: Affinity isolation (pull-down) of CA-IX from HT-29 cell lysate; assay type: binding; parameters: HT-29 cell line endogenously expressing CA-IX; endogenous in cells; host or cells: HT-29; details: conjugate on Streptavidin Sepharose, Western blot
Experimental: HT29 cells (cultured in 100 mm Petri dish) endogenously expressing CA-IX were lysed by sonication in a water bath (3 min/0° C.) in 450 μl of 50 mM Tris-HCl, 150 mM NaCl, pH 7.4, 1% Tween 20. Resulting cell lysate was further diluted in 20 mM Tris-HCl, 150 mM NaCl, 0.1% Tween 20, pH 7.4 (TBST) to a final protein concentration of 360 μg/ml. Meanwhile, Conjugate 3 and Conjugate 2 (negative control showing nonspecific binding) were pre-bound to 25 μl of Streptavidin Sepharose (200 nM solution in 200 μl of TBST, 1 hour, 6° C.), and after washing with 3×200 μl TBST, the resin was mixed with 200 μl of HT-29 cell lysate and incubated at 25° C. for 3 hours. The resin was then washed with 3×200 μl of TBST and subsequently, proteins were eluted with 25 μl of sample buffer for SDS-PAGE and with heating to 98° C. for 10 min.
To compare the effectiveness of CA-IX isolation with Conjugate 3, CA-IX was also isolated with M75 antibody. The experiment was performed analogously to experiment with polymeric conjugates: 1 μg of antibody was pre-bound to 20 μl of Protein G Sepharose the procedure followed as described above. […]
After isolation, samples were separated by SDS-PAGE electrophoresis and the gel was blotted to a nitrocellulose membrane (wet blot 100 V/1 hour). […] Chemiluminescence was recorded with ChemiDoc It™ 600 Imaging System (UVP).

HIV-1 protease = target: T2, HIV-1 protease (Human immunodeficiency virus type 1 group M subtype B, UniProt P04585); assay: Inhibition of HIV-1 protease activity (spectrophotometric, chromogenic peptide substrate); assay type: biochemical; details: pH 4.7, substrate 16 μM
T2 construct: HIV-1 protease is a homodimeric aspartic protease
Experimental: The inhibition analyses were performed by spectrophotometric assay using the chromogenic peptide substrate KARVNle*NphEANle-NH2 as previously described.
The 1 ml reaction mixture contained 100 mM sodium acetate, 300 mM NaCl, pH 4.7, 6.8 pmol of HIV-1 protease and inhibitor in concentrations ranging between 2 and 130 nM. Substrate was added to a final concentration of 16 μM. Afterwards, the hydrolysis of substrate was followed as a decrease in absorbance at 305 nm using a UNICAM UV500 UV-VIS spectrophotometer (Thermo, Cambridge, Mass.). The data were analyzed using the equation for competitive inhibition according to Williams and Morrison. The mechanism of inhibition was determined by analysis of Lineweaver-Burk plots.

[2] = read-out: Ki [nM] towards HIV-1 protease

“poly(HPMA-co-Ma-β-Ala-ATTO488-co-Ma-β-Ala-NH-biotin) [Conjugate 2]” was tested, and the “inhibition of the activity of GCPII” value [1] was “did not inhibit the activity of GCPII” and the “affinity isolation / binding of CA-IX from lysate of HT-29 cells” value (CA-IX) was “no binding of CA-IX”.
With CC(C)C[C@H](NC(=O)[C@H](C)NC(=O)C[C@H](O)[C@H](CC(C)C)NC(=O)[C@@H](NC(=O)[C@@H](NC(=O)COCCOCCNC(=O)COCCOCCN)C(C)C)C(C)C)[C@@H](O)CC(=O)O [compound D, (19S,22S,25S,26S,30S,33S)-33-((S)-2-carboxy-1-hydroxyethyl)-26-hydroxy-25-isobutyl-19,22-diisopropyl-30,35-dimethyl-8,17,20,23,28,31-hexaoxo-3,6,12,15-tetraoxa-9,18,21,24,29,32-hexaazahexatriacontan-1-aminium] (H-[AEEA][AEEA]VV[Sta]A[Sta]-OH) the Ki (HIV-1 protease; [2]) was 590 nM.
In the case of CC(C)[C@H](NC(=O)COCCOCCNC(=O)COCCOCCN)C(=O)N[C@@H](Cc1ccccc1)C[C@H](O)[C@H](Cc1ccccc1)NC(=O)OCc1cncs1 [compound C, (5S,6S,8S,11S)-5,8-dibenzyl-6-hydroxy-11-isopropyl-3,10,13,22-tetraoxo-1-(thiazol-5-yl)-2,15,18,24,27-pentaoxa-4,9,12,21-tetraazanonacosan-29-aminium 2,2,2-trifluoroacetate], the Ki (HIV-1 protease; [2]) is reported as 0.012 ± 0.001 nM and the Ki (HIV-1 protease; read-out: Ki towards HIV-1 protease) is reported as 0.013 nM.
NCCOCCOCCOCCOCCOCCC(=O)N(CCCC[C@H](NC(=O)N[C@@H](CCC(=O)O)C(=O)O)C(=O)O)Cc1ccc(Br)cc1 [Compound A, (24S,28S)-19-(4-bromobenzyl)-24,28,30-tricarboxy-18,26-dioxo-3,6,9,12,15-pentaoxa-19,25,27-triazatriakontan-1-aminium 2,2,2-trifluoroacetate] showed a Ki [1] of 2030 pM.
